Reference: patent publication US12378224B2 (Dong-A Socio Holdings Co., Ltd., priority 2016, dated 2025)

Molecular target: human MER (528-end) (Homo sapiens (Human), UniProt Q12866)
Test: HTRF Kinase Activity Biochemical Assay (KinEASE-TK)
Settings: 10 uM ATP
In short: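 Recombinant human MER (528-end) phosphorylated biotin-TK peptide substrate, 1 h at room temperature. Reaction stopped with detection buffer containing 0.375 nM Eu3+-cryptate anti-TK antibody and 0.062 uM streptavidin-XL665, 1 h further. Activity taken as HTRF ratio 665/620 nm ×10,000, 340 nm excitation.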

Chain of human MER (528-end) (Q12866 528-999 limits assumed): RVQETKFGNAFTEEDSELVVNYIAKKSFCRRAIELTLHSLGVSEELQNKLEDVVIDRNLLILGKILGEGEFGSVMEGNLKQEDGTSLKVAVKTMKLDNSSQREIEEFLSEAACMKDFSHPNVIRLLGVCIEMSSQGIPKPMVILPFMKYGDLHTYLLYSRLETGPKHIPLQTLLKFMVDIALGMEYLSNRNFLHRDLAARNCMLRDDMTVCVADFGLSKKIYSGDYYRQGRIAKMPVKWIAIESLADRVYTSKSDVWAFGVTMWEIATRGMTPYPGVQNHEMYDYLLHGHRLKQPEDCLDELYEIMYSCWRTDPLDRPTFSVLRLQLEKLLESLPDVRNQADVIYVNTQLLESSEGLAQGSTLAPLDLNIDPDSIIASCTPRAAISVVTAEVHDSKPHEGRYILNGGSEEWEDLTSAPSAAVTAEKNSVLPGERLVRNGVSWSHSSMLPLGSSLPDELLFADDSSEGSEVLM

SMILES | IC50 [nM]
Cc1ccc(C(=O)N2CC[C@@H](NC(=O)c3cc(-c4cnn(C)c4)cnc3N)C2)cc1-c1ccccc1Cl [Example 483, (R)-2-amino-N-(1-(2′-chloro-6-methyl-[1,1′-biphenyl]-3-carbonyl)pyrrolidin-3-yl)-5-(1-methyl-1H-pyrazol-4-yl)nicotinamide] | > 1000
Cc1ccc(C(=O)N2CC[C@@H](NC(=O)c3cc(-c4cnn(C)c4)cnc3N)C2)cc1-c1cccc(Cl)c1 [Example 484, (R)-2-amino-N-(1-(3′-chloro-6-methyl-[1,1′-biphenyl]-3-carbonyl)pyrrolidin-3-yl)-5-(1-methyl-1H-pyrazol-4-yl)nicotinamide] | > 1000
Cc1cc(C(=O)N2CC[C@@H](NC(=O)c3cc(-c4cnn(C)c4)cnc3N)C2)c(N)c(-c2ccccc2)c1 [Example 485, (R)-2-amino-N-(1-(2-amino-5-methyl-[1,1′-biphenyl]-3-carbonyl)pyrrolidin-3-yl)-5-(1-methyl-1H-pyrazol-4-yl)nicotinamide] | 100 to 1000
Cc1nn(C)cc1-c1ccc(C(=O)N2CC[C@@H](NC(=O)c3cc(-c4cnn(C)c4)cnc3N)C2)cc1 [Example 488, (R)-2-amino-N-(1-(4-(1,3-dimethyl-1H-pyrazol-4-yl)benzoyl)pyrrolidin-3-yl)-5-(1-methyl-1H-pyrazol-4-yl)nicotinamide] | 100 to 1000
Cn1cc(-c2cnc(N)c(C(=O)N[C@@H]3CCN(C(=O)c4ccc(-c5cc6ccccc6s5)cc4)C3)c2)cn1 [Example 490, (R)-2-amino-N-(1-(4-(benzo[b]thiophen-2-yl)benzoyl)pyrrolidin-3-yl)-5-(1-methyl-1H-pyrazol-4-yl)nicotinamide] | > 1000
Cn1cc(-c2cnc(N)c(C(=O)N[C@@H]3CCN(C(=O)c4ccc(-c5ccnc(N6CCNCC6)c5)cc4)C3)c2)cn1 [Example 491, (R)-2-amino-5-(1-methyl-1H-pyrazol-4-yl)-N-(1-(4-(2-(piperazin-1-yl)pyridin-4-yl)benzoyl)pyrrolidin-3-yl)nicotinamide] | 100 to 1000
Cn1cc(-c2cnc(N)c(C(=O)N[C@@H]3CCN(C(=O)c4ccc(-c5ccc(N6CCOCC6)cc5)cc4)C3)c2)cn1 [Example 492, (R)-2-amino-5-(1-methyl-1H-pyrazol-4-yl)-N-(1-(4′-morpholino-[1,1′-biphenyl]-4-carbonyl)pyrrolidin-3-yl)nicotinamide] | > 1000
Cn1cc(-c2cnc(N)c(C(=O)N[C@@H]3CCN(C(=O)c4ccc(-c5ccc(C(=O)N6CCOCC6)cc5)cc4)C3)c2)cn1 [Example 493, (R)-2-amino-5-(1-methyl-1H-pyrazol-4-yl)-N-(1-(4′-(morpholine-4-carbonyl)-[1,1′-biphenyl]-4-carbonyl)pyrrolidin-3-yl)nicotinamide] | > 1000
CC1=C(C(=O)N2CC[C@@H](NC(=O)c3cc(-c4cnn(C)c4)cnc3N)C2)Cc2ccccc21 [Example 497, (R)-2-amino-N-(1-(3-methyl-1H-indene-2-carbonyl)pyrrolidin-3-yl)-5-(1-methyl-1H-pyrazol-4-yl)nicotinamide] | > 1000
Cn1cc(-c2cnc(N)c(C(=O)N[C@@H]3CCN(C(=O)c4cccc5[nH]ccc45)C3)c2)cn1 [Example 504, (R)—N-(1-(1H-indole-4-carbonyl)pyrrolidin-3-yl)-2-amino-5-(1-methyl-1H-pyrazol-4-yl)nicotinamide] | > 1000
Cn1cc(-c2ccc(C(=O)N3CC[C@@H](NC(=O)c4cc(-c5cnn(C)c5)cnc4N)C3)cc2)cn1 [Example 506, (R)-2-amino-5-(1-methyl-1H-pyrazol-4-yl)-N-(1-(4-(1-methyl-1H-pyrazol-4-yl)benzoyl)pyrrolidin-3-yl)nicotinamide] | 100 to 1000
Cc1nn(C)c(C)c1-c1ccc(C(=O)N2CC[C@@H](NC(=O)c3cc(-c4cnn(C)c4)cnc3N)C2)cc1 [Example 507, (R)-2-amino-5-(1-methyl-1H-pyrazol-4-yl)-N-(1-(4-(1,3,5-trimethyl-1H-pyrazol-4-yl)benzoyl)pyrrolidin-3-yl)nicotinamide] | 100 to 1000
Cn1cc(-c2cnc(N)c(C(=O)N[C@@H]3CCN(C(=O)c4ccc(-c5cnn(C6CCCC6)c5)cc4)C3)c2)cn1 [Example 508, (R)-2-amino-N-(1-(4-(1-cyclopentyl-1H-pyrazol-4-yl)benzoyl)pyrrolidin-3-yl)-5-(1-methyl-1H-pyrazol-4-yl)nicotinamide] | > 1000
Cn1cc(-c2cnc(N)c(C(=O)N[C@@H]3CCN(C(=O)c4ccc(-c5cnn(C6CCOCC6)c5)cc4)C3)c2)cn1 [Example 509, (R)-2-amino-5-(1-methyl-1H-pyrazol-4-yl)-N-(1-(4-(1-(tetrahydro-2H-pyran-4-yl)-1H-pyrazol-4-yl)benzoyl)pyrrolidin-3-yl)nicotinamide] | > 1000
Cn1cc(-c2cnc(N)c(C(=O)N[C@@H]3CCN(C(=O)c4ccc(-c5cnn(C6CCNCC6)c5)cc4)C3)c2)cn1 [Example 510, (R)-2-amino-5-(1-methyl-1H-pyrazol-4-yl)-N-(1-(4-(1-(piperidin-4-yl)-1H-pyrazol-4-yl)benzoyl)pyrrolidin-3-yl)nicotinamide] | > 1000
Cn1cc(-c2cnc(N)c(C(=O)N[C@@H]3CCN(C(=O)c4cc5cc(-c6ccccc6)ccc5o4)C3)c2)cn1 [Example 512, (R)-2-amino-5-(1-methyl-1H-pyrazol-4-yl)-N-(1-(5-phenylbenzofuran-2-carbonyl)pyrrolidin-3-yl)nicotinamide] | > 1000
Cn1cc(-c2cnc(N)c(C(=O)N[C@@H]3CCN(C(=O)c4cccc(O)c4)C3)c2)cn1 [Example 515, (R)-2-amino-N-(1-(3-hydroxybenzoyl)pyrrolidin-3-yl)-5-(1-methyl-1H-pyrazol-4-yl)nicotinamide] | > 1000
Cc1c(-c2ccc(C(=O)N3CC[C@@H](NC(=O)c4cc(-c5cnn(C)c5)cnc4N)C3)cc2)cnn1C [Example 517, (R)-2-amino-N-(1-(4-(1,5-dimethyl-1H-pyrazol-4-yl)benzoyl)pyrrolidin-3-yl)-5-(1-methyl-1H-pyrazol-4-yl)nicotinamide] | 10 to 100
Cc1nn(-c2ccccc2)c(C)c1-c1ccc(C(=O)N2CC[C@@H](NC(=O)c3cc(-c4cnn(C)c4)cnc3N)C2)cc1 [Example 519, (R)-2-amino-N-(1-(4-(3,5-dimethyl-1-phenyl-1H-pyrazol-4-yl)benzoyl)pyrrolidin-3-yl)-5-(1-methyl-1H-pyrazol-4-yl)nicotinamide] | > 1000
Cc1sc(-c2ccc(C(=O)N3CC[C@@H](NC(=O)c4cc(-c5cnn(C)c5)cnc4N)C3)cc2)c(C)c1Br [Example 522, (R)-2-amino-N-(1-(4-(4-bromo-3,5-dimethylthiophen-2-yl)benzoyl)pyrrolidin-3-yl)-5-(1-methyl-1H-pyrazol-4-yl)nicotinamide] | 100 to 1000
Cn1cc(-c2cnc(N)c(C(=O)N[C@@H]3CCN(C(=O)c4ccc(-c5ccc(Oc6ccccc6)cc5)cc4)C3)c2)cn1 [Example 527, (R)-2-amino-5-(1-methyl-1H-pyrazol-4-yl)-N-(1-(4′-phenoxy-[1,1′-biphenyl]-4-carbonyl)pyrrolidin-3-yl)nicotinamide] | 100 to 1000
COc1ccc(Oc2ccc(-c3ccc(C(=O)N4CC[C@@H](NC(=O)c5cc(-c6cnn(C)c6)cnc5N)C4)cc3)cc2)cc1 [Example 528, (R)-2-amino-N-(1-(4′-(4-methoxyphenoxy)-[1,1′-biphenyl]-4-carbonyl)pyrrolidin-3-yl)-5-(1-methyl-1H-pyrazol-4-yl)nicotinamide] | > 1000
Cc1ccc(-c2ccc(C(=O)N3CC[C@@H](NC(=O)c4cc(-c5cnn(C)c5)cnc4N)C3)cc2O)s1 [Example 535, (R)-2-amino-N-(1-(3-hydroxy-4-(5-methylthiophen-2-yl)benzoyl)pyrrolidin-3-yl)-5-(1-methyl-1H-pyrazol-4-yl)nicotinamide] | 100 to 1000
CC(=O)c1ccc(-c2ccc(C(=O)N3CC[C@@H](NC(=O)c4cc(-c5cnn(C)c5)cnc4N)C3)cc2)s1 [Example 538, (R)—N-(1-(4-(5-acetylthiophen-2-yl)benzoyl)pyrrolidin-3-yl)-2-amino-5-(1-methyl-1H-pyrazol-4-yl)nicotinamide] | 100 to 1000
Cc1onc(N)c1-c1ccc(C(=O)N2CC[C@@H](NC(=O)c3cc(-c4cnn(C)c4)cnc3N)C2)cc1 [Example 540, (R)-2-amino-N-(1-(4-(3-amino-5-methylisoxazol-4-yl)benzoyl)pyrrolidin-3-yl)-5-(1-methyl-1H-pyrazol-4-yl)nicotinamide] | > 1000
Cc1cnc(-c2ccc(C(=O)N3CC[C@@H](NC(=O)c4cc(-c5cnn(C)c5)cnc4N)C3)cc2)s1 [Example 543, (R)-2-amino-5-(1-methyl-1H-pyrazol-4-yl)-N-(1-(4-(5-methylthiazol-2-yl)benzoyl)pyrrolidin-3-yl)nicotinamide] | 100 to 1000
Cc1csc(-c2ccc(C(=O)N3CC[C@@H](NC(=O)c4cc(-c5cnn(C)c5)cnc4N)C3)cc2)n1 [Example 544, (R)-2-amino-5-(1-methyl-1H-pyrazol-4-yl)-N-(1-(4-(4-methylthiazol-2-yl)benzoyl)pyrrolidin-3-yl)nicotinamide] | 100 to 1000
Cn1cc(-c2cnc(N)c(C(=O)N[C@@H]3CCN(C(=O)c4nc5ccccc5[nH]4)C3)c2)cn1 [Example 545, (R)—N-(1-(1H-benzo[d]imidazole-2-carbonyl)pyrrolidin-3-yl)-2-amino-5-(1-methyl-1H-pyrazol-4-yl)nicotinamide] | > 1000
Cn1cc(-c2cnc(N)c(C(=O)N[C@@H]3CCN(C(=O)c4ccc(-c5ccc(CN6CCC(N)CC6)cc5)cc4)C3)c2)cn1 [Example 547, (R)-2-amino-N-(1-(4′-((4-aminopiperidin-1-yl)methyl)-[1,1′-biphenyl]-4-carbonyl)pyrrolidin-3-yl)-5-(1-methyl-1H-pyrazol-4-yl)nicotinamide] | 100 to 1000
CN1CCC(COc2ccc(-c3ccc(C(=O)N4CC[C@@H](NC(=O)c5cc(-c6cnn(C)c6)cnc5N)C4)cc3)cc2)CC1 [Example 552, (R)-2-amino-5-(1-methyl-1H-pyrazol-4-yl)-N-(1-(4′-((1-methylpiperidin-4-yl)methoxy)-[1,1′-biphenyl]-4-carbonyl)pyrrolidin-3-yl)nicotinamide] | 100 to 1000
